{"source": "paper PMC3669009", "about": "“Degradation of Phytate by the 6-Phytase from Hafnia alvei: A Combined Structural and Solution Study” (PLoS ONE, 2013)", "key": {"[1]": {"biological_target": "T1, HaPhy (Hafnia alvei phytase) (Hafnia alvei, UniProt H9TUK5)", "T1 construct": "gene phyA; recombinant mature enzyme, purified, residues 1-416; expression details only in SI; monomer in the asymmetric unit; four disulphides", "T1 sequence (H9TUK5 34-446)": "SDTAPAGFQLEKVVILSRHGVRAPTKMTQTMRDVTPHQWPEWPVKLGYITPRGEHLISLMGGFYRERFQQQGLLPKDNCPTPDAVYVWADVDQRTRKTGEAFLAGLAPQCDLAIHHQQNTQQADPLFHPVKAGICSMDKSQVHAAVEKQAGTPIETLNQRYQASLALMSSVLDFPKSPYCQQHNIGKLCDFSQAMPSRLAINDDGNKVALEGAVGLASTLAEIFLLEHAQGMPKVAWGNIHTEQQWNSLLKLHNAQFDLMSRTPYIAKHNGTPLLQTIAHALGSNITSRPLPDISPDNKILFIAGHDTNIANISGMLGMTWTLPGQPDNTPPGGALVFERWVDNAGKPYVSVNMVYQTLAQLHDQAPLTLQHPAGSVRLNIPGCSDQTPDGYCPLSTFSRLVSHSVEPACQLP", "experiment": "X-ray crystal structure of the complex, […] Å", "type": "binding", "settings": "0.2 M potassium/sodium tartrate, pH 8.4-9.1 (from crystallisation solution); active site; second tartrate at occupancy 0.25"}, "[2]": {"biological_target": "T2, YkPhy (Yersinia kristensenii phytase) (Yersinia kristensenii, UniProt H9TUK6)", "T2 construct": "gene phyA", "T2 sequence (H9TUK6 entry or part of it)": "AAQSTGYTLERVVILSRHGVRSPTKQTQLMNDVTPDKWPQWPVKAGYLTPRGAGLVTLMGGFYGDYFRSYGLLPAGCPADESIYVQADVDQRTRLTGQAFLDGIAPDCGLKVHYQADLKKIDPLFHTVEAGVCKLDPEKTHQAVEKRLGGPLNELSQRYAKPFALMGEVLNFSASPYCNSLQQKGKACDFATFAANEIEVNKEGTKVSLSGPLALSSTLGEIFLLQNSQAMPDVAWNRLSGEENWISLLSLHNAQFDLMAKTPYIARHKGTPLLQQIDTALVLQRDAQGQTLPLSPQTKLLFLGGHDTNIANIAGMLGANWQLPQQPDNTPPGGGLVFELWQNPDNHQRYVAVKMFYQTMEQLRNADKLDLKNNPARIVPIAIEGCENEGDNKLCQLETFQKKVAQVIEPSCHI", "settings": "SPGS buffer pH 5.0 (phosphate from crystallisation solution); two Pi in the active site"}, "[3]": {"biological_target": "T1, HaPhy (Hafnia alvei phytase)", "experiment": "isothermal titration calorimetry", "type": "binding"}}, "data": [{"compound": "O=C(O)C(O)C(O)C(=O)O", "note": "(stereo not drawn) [L(+)-tartrate]", "values": [{"measurement": "X-ray crystal structure of the complex, 1.60 Å", "setting": "[1]", "value": "The active site contained a tartrate molecule, a component of the crystallisation buffer"}]}, {"compound": "O=P(O)(O)O", "note": "[Pi, phosphate]", "values": [{"measurement": "X-ray crystal structure of the complex, 1.67 Å", "setting": "[2]", "value": "Each monomer contains two Pi molecules in its active site"}]}, {"compound": "O=S(=O)(O)O[C@H]1[C@H](OS(=O)(=O)O)[C@@H](OS(=O)(=O)O)[C@H](OS(=O)(=O)O)[C@@H](OS(=O)(=O)O)[C@H]1OS(=O)(=O)O", "note": "[MIHS, myo-inositol hexakissulphate]", "values": [{"measurement": "Kd", "setting": "[3]", "value": "~0.16", "unit": "µM"}]}]}
